Laboratory results reported in patent US4015974A, “Amido phosphorothiolates” (priority 1972, dated 1977).

Columns and labels:
Assay type in all cases: in vivo
[1] = test system: large crabgrass (Digitaria sanguinalis); assay: Pre-emergence application, herbicidal effect on large crabgrass (Table 1); design: key: 0: not damaged; 5: completely killed; conditions: 20 days after application, score 0-5
Outline: (§1)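 Pre-emergence soil treatment: seeds sown in pots of about 10 cm and covered with soil, then compounds applied as wettable powder diluted in water. Plants grown in a greenhouse; damage scored 20 days after application from 0 (not damaged) to 5 (completely killed).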

[2] = test system: broad-leaved weeds, e.g., monochoria, false pimpernel and toothcup; assay: Water application, herbicidal effect on broad-leaved weeds (Table 2); design: key: 0: not damaged; 5: completely killed; conditions: 25 days, score 0-5
Outline: (§2)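 Flooded paddy-soil pots with 3-leaf-stage transplanted rice and sown barnyard grass; wettable-powder compounds applied to soil under water. Herbicidal effect and rice phytotoxicity, also on spontaneously germinated broad-leaved weeds, scored 0–5 at 25 days after application.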

[3] = test system: redroot pigweed (Amaranthus retroflexus); assay: Pre-emergence application, herbicidal effect on redroot pigweed (Table 1); design: key: 0: not damaged; 5: completely killed; conditions: 20 days after application, score 0-5
Outline: as §1

rice = assay: Water application, phytotoxicity on rice (Table 2); design: key: 0: no effect; 1: very slightly affected; 2: slightly affected; 3: moderately affected; 4: considerably affected; 5: completely killed; conditions: 25 days, score 0-5
Outline: as §2

[4] = test system: common purslane (Portulaca oleracea); assay: Pre-emergence application, herbicidal effect on common purslane (Table 1); design: key: 0: not damaged; 5: completely killed; conditions: 20 days after application, score 0-5
Outline: as §1

[5] = test system: barnyard grass (Echinochloa crus-galli); assay: Pre-emergence application, herbicidal effect on barnyard grass (Table 1); design: key: 0: not damaged; 5: completely killed; conditions: 20 days after application, score 0-5
Outline: as §1

[6] = test system: common lambsquarter (Chenopodium album); assay: Pre-emergence application, herbicidal effect on common lambsquarter (Table 1); design: key: 0: not damaged; 5: completely killed; conditions: 20 days after application, score 0-5
Outline: as §1

radish = assay: Pre-emergence application, herbicidal effect on radish (Table 1); design: key: 0: not damaged; 5: completely killed; conditions: 20 days after application, score 0-5
Outline: as §1

[7] = test system: barnyard grass (Echinochloa crus-galli); assay: Water application, herbicidal effect on barnyard grass (Table 2); design: key: 0: not damaged; 5: completely killed; conditions: 25 days, score 0-5
Outline: as §2

SMILES | Herbicidal effect, large crabgrass ([1]; 10 g./a.) | Herbicidal effect, large crabgrass ([1]; 20 g./a.) | Herbicidal effect, large crabgrass ([1]; 40 g./a.) | Herbicidal effects, broad-leaved weeds ([2]; 10 g/a) | Herbicidal effects, broad-leaved weeds ([2]; 20 g/a) | Herbicidal effects, broad-leaved weeds ([2]; 40 g/a) | Herbicidal effect, redroot pigweed ([3]; 10 g./a.) | Herbicidal effect, redroot pigweed ([3]; 20 g./a.) | Herbicidal effect, redroot pigweed ([3]; 40 g./a.) | Phytotoxicity on rice (rice; 10 g/a) | Phytotoxicity on rice (rice; 20 g/a) | Phytotoxicity on rice (rice; 40 g/a) | Herbicidal effect, common purslane ([4]; 10 g./a.) | Herbicidal effect, common purslane ([4]; 20 g./a.) | Herbicidal effect, common purslane ([4]; 40 g./a.) | Herbicidal effect, barnyard grass ([5]; 10 g./a.) | Herbicidal effect, barnyard grass ([5]; 20 g./a.) | Herbicidal effect, barnyard grass ([5]; 40 g./a.) | Herbicidal effect, common lambsquarter ([6]; 10 g./a.) | Herbicidal effect, common lambsquarter ([6]; 20 g./a.) | also measured
CCOP(=O)(SCC(=O)N1CCCCC1C)SC(C)c1ccccc1 (stereo not drawn) [Compound 64] | 4 | 5 | 5 | 5 | 5 | 5 | 3 | 3 | 4 | 0 | 0 | 0 | 3 | 3 | 4 | 4 | 5 | 5 | 3 | 4 | Herbicidal effect, common lambsquarter ([6]; 40 g./a.): 4; Herbicidal effect, radish (radish; 10 g./a.): 0; Herbicidal effect, radish (radish; 20 g./a.): 0; Herbicidal effect, radish (radish; 40 g./a.): 0; Herbicidal effects, barnyard grass ([7]; 10 g/a): 5; Herbicidal effects, barnyard grass ([7]; 20 g/a): 5; Herbicidal effects, barnyard grass ([7]; 40 g/a): 5
CCCOP(=O)(SCC(=O)N1CCCCC1C)SCC(C)C (stereo not drawn) [Compound 67] | 4 | 5 | 5 | 5 | 5 | 5 | 4 | 4 | 5 | 0 | 0 | 0 | 4 | 4 | 5 | 4 | 5 | 5 | 3 | 4 | Herbicidal effect, common lambsquarter ([6]; 40 g./a.): 5; Herbicidal effect, radish (radish; 10 g./a.): 0; Herbicidal effect, radish (radish; 20 g./a.): 0; Herbicidal effect, radish (radish; 40 g./a.): 0; Herbicidal effects, barnyard grass ([7]; 10 g/a): 5; Herbicidal effects, barnyard grass ([7]; 20 g/a): 5; Herbicidal effects, barnyard grass ([7]; 40 g/a): 5
CCOP(=O)(SCC(=O)N1CCCCC1CC)SCC(C)C (stereo not drawn) [Compound 77] | 5 | 5 | 5 | 5 | 5 | 5 | 5 | 5 | 5 | 0 | 0 | 1 | 5 | 5 | 5 | 5 | 5 | 5 | 5 | 5 | Herbicidal effect, common lambsquarter ([6]; 40 g./a.): 5; Herbicidal effect, radish (radish; 10 g./a.): 0; Herbicidal effect, radish (radish; 20 g./a.): 0; Herbicidal effect, radish (radish; 40 g./a.): 0; Herbicidal effects, barnyard grass ([7]; 10 g/a): 5; Herbicidal effects, barnyard grass ([7]; 20 g/a): 5; Herbicidal effects, barnyard grass ([7]; 40 g/a): 5
CCCOP(=O)(SCCC(C)C)SCC(=O)N1CCCCC1C (stereo not drawn) [Compound 69] | 5 | 5 | 5 | 5 | 5 | 5 | 4 | 5 | 5 | 0 | 0 | 1 | 4 | 5 | 5 | 4 | 5 | 5 | 4 | 5 | Herbicidal effect, common lambsquarter ([6]; 40 g./a.): 5; Herbicidal effect, radish (radish; 10 g./a.): 0; Herbicidal effect, radish (radish; 20 g./a.): 0; Herbicidal effect, radish (radish; 40 g./a.): 0; Herbicidal effects, barnyard grass ([7]; 10 g/a): 5; Herbicidal effects, barnyard grass ([7]; 20 g/a): 5; Herbicidal effects, barnyard grass ([7]; 40 g/a): 5
CCOP(=O)(SC)SCC(=O)N1CCCCC1CC (stereo not drawn) [Compound 74] | 5 | 5 | 5 | 5 | 5 | 5 | 5 | 5 | 5 | 0 | 0 | 0 | 5 | 5 | 5 | 5 | 5 | 5 | 5 | 5 | Herbicidal effect, common lambsquarter ([6]; 40 g./a.): 5; Herbicidal effect, radish (radish; 10 g./a.): 0; Herbicidal effect, radish (radish; 20 g./a.): 1; Herbicidal effect, radish (radish; 40 g./a.): 2; Herbicidal effects, barnyard grass ([7]; 10 g/a): 5; Herbicidal effects, barnyard grass ([7]; 20 g/a): 5; Herbicidal effects, barnyard grass ([7]; 40 g/a): 5
CCCOP(=O)(SCC(=O)N1CCCCC1CC)SCC(C)C (stereo not drawn) [Compound 88] | 5 | 5 | 5 | 5 | 5 | 5 | 3 | 3 | 4 | 0 | 0 | 0 | 3 | 3 | 4 | 5 | 5 | 5 | 3 | 3 | Herbicidal effect, common lambsquarter ([6]; 40 g./a.): 4; Herbicidal effect, radish (radish; 10 g./a.): 0; Herbicidal effect, radish (radish; 20 g./a.): 0; Herbicidal effect, radish (radish; 40 g./a.): 0; Herbicidal effects, barnyard grass ([7]; 10 g/a): 5; Herbicidal effects, barnyard grass ([7]; 20 g/a): 5; Herbicidal effects, barnyard grass ([7]; 40 g/a): 5
CCCOP(=O)(SCC)SCC(=O)N1CCCCC1CC (stereo not drawn) [Compound 84] | 5 | 5 | 5 | 5 | 5 | 5 | 4 | 5 | 5 | 0 | 0 | 2 | 5 | 5 | 5 | 5 | 5 | 5 | 4 | 5 | Herbicidal effect, common lambsquarter ([6]; 40 g./a.): 5; Herbicidal effect, radish (radish; 10 g./a.): 0; Herbicidal effect, radish (radish; 20 g./a.): 1; Herbicidal effect, radish (radish; 40 g./a.): 2; Herbicidal effects, barnyard grass ([7]; 10 g/a): 5; Herbicidal effects, barnyard grass ([7]; 20 g/a): 5; Herbicidal effects, barnyard grass ([7]; 40 g/a): 5
CCCOP(=O)(SC)SCC(=O)N1CCCCC1C (stereo not drawn) [Compound 66] | 5 | 5 | 5 | 5 | 5 | 5 | 5 | 5 | 5 | 0 | 0 | 0 | 5 | 5 | 5 | 5 | 5 | 5 | 5 | 5 | Herbicidal effect, common lambsquarter ([6]; 40 g./a.): 5; Herbicidal effect, radish (radish; 10 g./a.): 0; Herbicidal effect, radish (radish; 20 g./a.): 0; Herbicidal effect, radish (radish; 40 g./a.): 1; Herbicidal effects, barnyard grass ([7]; 10 g/a): 5; Herbicidal effects, barnyard grass ([7]; 20 g/a): 5; Herbicidal effects, barnyard grass ([7]; 40 g/a): 5
